Measured values from patent publication USRE49850E1, “N-(pyridin-2-yl)-4-(thiazol-5-yl)pyrimidin-2-amine derivatives as therapeutic compounds” (AUCENTRA THERAPEUTICS PTY LTD, priority 2015, dated 2024).
Where two headings read alike, the source gives them in different places. One block for each compound: values may come before it.

Key:
[1] = system: MV4-11; test: Cell viability assay (resazurin, leukemia cell line) MV4-11; assay type: cell-based, human
Source text: (§1) Compounds from Example 1 were subjected to a standard MTT (3-(4,5-dimethylthiazol-2-yl)-2,5-diphenyltetrazolium bromide) and resazurin assays on solid tumour cell lines and leukemia cell lines, respectively, as previously reported (Wang S et al., J Med Chem 47:1662-1675, 2004 and Diab S. et al. CheMedChem 9:962-972, 2014).

[2] = biological target: CDK1B (Homo sapiens, UniProt P06493); test: Kinase assay CDK1B (radiometric profiling service); assay type: biochemical; settings: apparent Ki calculated from Km (ATP) and IC50; read-out: CDK inhibition Ki CDK1B
Chain of CDK1B (P06493 whole entry): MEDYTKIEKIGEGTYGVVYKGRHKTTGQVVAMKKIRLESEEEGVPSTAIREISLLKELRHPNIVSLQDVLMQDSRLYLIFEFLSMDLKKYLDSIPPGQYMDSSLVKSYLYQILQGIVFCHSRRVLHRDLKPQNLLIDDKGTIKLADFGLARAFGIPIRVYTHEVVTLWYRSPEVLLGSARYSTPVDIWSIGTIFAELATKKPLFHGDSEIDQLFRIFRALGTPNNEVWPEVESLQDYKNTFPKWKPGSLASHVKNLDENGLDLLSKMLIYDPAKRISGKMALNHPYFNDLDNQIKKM
Chain of CDK1B (P14635 whole entry partner): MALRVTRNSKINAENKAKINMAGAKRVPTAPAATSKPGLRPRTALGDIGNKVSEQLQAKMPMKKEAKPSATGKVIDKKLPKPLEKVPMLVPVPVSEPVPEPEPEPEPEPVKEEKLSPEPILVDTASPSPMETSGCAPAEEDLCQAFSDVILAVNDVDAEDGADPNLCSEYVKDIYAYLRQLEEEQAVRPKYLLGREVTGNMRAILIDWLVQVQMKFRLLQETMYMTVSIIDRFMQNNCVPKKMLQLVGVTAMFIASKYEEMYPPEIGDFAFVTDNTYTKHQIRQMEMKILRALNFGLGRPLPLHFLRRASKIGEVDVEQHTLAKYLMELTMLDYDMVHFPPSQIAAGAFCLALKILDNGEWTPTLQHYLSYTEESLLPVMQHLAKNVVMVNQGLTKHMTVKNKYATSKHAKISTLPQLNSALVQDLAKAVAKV
How it was run: (§2)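 In-house CDK4/D1 ADP-Glo: RB-CTF substrate, buffer […] pH 7.5/20 mM MgCl2/0.4 mM DTT/0.1 mg/ml BSA, ATP-initiated 40 min reaction at 37 °C, luminescence read-out; compounds tested from 10 μM to 0.5 nM in ten 1:3 steps. CDK7H, CDK2A and CDK1B plus alternative CDK4/D1 values measured radiometrically by external profilers; IC50 by logistic fit, apparent Ki via ATP Km.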

[3] = biological target: T1, CDK6D3 (Homo sapiens, UniProt Q00534); test: Kinase assay CDK6/D3 (radiometric or ADP Glo); assay type: biochemical; settings: apparent Ki calculated from Km (ATP) and IC50; read-out: CDK inhibition Ki CDK6D3
T1 construct: purchased Eurofins Pharma Discovery or Reaction Biology Corporation (service)
T1 sequence (Q00534 whole entry): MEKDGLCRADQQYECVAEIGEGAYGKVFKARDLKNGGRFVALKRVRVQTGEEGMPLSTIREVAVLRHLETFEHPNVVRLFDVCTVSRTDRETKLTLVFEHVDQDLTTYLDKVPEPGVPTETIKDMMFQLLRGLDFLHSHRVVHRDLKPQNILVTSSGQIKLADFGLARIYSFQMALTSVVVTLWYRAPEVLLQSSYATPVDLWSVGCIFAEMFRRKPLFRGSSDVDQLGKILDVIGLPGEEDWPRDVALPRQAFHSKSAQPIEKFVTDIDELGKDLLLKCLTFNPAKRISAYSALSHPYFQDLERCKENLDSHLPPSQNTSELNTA
T1 sequence (P30281 whole entry partner): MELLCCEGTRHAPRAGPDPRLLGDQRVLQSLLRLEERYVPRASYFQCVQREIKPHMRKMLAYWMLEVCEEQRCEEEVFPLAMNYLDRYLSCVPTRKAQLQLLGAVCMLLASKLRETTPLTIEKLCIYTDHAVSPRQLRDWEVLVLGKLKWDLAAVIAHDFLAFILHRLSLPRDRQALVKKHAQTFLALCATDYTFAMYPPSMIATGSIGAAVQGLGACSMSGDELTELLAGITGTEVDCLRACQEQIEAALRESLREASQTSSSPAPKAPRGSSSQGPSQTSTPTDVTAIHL
How it was run: (§3)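 Radiometric inhibition data for CDKs came from Eurofins or Reaction Biology profiling services; CDK4/D1 was also run in-house by ADP-Glo in […] pH 7.5, 20 mM MgCl2, 0.4 mM DTT, 0.1 mg/ml BSA with RB-CTF substrate, 40 min at 37 °C after ATP start. Ten-point 1:3 dilutions (10 μM–0.5 nM); four-parameter IC50, Ki from IC50 and ATP Km.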

[4] = system: D283; test: Cell viability assay, medulloblastoma D283; assay type: cell-based; settings: Homo sapiens, read-out: Antiproliferative activity GI50 D283
Source text: as §1

[5] = system: D458; test: Cell viability assay, medulloblastoma D458; assay type: cell-based; settings: Homo sapiens, 72 h, read-out: Antiproliferative activity GI50 D458
Source text: as §1

[6] = biological target: CDK7H (Homo sapiens, UniProt P50613); test: Kinase assay CDK7H (radiometric profiling service); assay type: biochemical; settings: apparent Ki calculated from Km (ATP) and IC50; read-out: CDK inhibition Ki CDK7H
Chain of CDK7H (P50613 whole entry): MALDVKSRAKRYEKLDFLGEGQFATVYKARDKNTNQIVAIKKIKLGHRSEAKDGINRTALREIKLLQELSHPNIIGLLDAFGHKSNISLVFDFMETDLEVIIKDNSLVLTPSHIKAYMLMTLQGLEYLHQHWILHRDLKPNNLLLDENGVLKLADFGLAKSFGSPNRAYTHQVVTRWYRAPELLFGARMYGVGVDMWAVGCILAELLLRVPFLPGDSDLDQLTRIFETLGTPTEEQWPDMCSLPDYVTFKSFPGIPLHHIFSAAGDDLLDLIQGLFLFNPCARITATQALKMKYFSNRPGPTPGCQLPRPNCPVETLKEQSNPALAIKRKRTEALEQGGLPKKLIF
Chain of CDK7H (P51946 whole entry partner): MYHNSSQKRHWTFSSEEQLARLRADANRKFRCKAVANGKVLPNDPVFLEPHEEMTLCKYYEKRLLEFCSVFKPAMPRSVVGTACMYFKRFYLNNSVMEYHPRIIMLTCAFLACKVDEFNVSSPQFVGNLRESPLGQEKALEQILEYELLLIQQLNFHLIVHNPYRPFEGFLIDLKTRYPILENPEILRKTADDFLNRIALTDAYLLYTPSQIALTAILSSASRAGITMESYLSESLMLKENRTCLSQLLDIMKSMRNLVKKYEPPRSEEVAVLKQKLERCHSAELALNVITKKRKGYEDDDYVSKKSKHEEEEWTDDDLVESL
Chain of CDK7H (P51948 whole entry partner): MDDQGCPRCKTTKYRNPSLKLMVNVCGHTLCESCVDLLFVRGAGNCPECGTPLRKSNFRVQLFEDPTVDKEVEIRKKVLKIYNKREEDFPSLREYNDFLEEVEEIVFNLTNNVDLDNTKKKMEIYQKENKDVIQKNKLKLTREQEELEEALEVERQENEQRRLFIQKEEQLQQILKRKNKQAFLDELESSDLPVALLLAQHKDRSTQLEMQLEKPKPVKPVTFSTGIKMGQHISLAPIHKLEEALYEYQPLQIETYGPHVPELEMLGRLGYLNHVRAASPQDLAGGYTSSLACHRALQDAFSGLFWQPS
How it was run: as §2

[7] = biological target: T2, CDK9T1 (Homo sapiens, UniProt P50750); test: Kinase assay CDK9/T1 (radiometric or ADP Glo); assay type: biochemical; settings: apparent Ki calculated from Km (ATP) and IC50; read-out: CDK inhibition Ki CDK9T1
T2 construct: purchased Eurofins Pharma Discovery or Reaction Biology Corporation (service)
T2 sequence (P50750 whole entry): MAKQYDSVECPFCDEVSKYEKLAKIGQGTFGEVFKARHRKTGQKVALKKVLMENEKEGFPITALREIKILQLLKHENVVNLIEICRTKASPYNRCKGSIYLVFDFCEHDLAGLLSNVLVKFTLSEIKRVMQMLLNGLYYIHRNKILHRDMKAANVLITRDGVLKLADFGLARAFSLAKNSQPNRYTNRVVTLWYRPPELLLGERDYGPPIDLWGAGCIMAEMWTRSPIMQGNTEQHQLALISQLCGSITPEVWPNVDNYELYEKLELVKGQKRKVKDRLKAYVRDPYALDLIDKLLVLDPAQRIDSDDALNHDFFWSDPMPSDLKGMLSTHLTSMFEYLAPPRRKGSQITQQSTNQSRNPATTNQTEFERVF
T2 sequence (O60563 whole entry partner): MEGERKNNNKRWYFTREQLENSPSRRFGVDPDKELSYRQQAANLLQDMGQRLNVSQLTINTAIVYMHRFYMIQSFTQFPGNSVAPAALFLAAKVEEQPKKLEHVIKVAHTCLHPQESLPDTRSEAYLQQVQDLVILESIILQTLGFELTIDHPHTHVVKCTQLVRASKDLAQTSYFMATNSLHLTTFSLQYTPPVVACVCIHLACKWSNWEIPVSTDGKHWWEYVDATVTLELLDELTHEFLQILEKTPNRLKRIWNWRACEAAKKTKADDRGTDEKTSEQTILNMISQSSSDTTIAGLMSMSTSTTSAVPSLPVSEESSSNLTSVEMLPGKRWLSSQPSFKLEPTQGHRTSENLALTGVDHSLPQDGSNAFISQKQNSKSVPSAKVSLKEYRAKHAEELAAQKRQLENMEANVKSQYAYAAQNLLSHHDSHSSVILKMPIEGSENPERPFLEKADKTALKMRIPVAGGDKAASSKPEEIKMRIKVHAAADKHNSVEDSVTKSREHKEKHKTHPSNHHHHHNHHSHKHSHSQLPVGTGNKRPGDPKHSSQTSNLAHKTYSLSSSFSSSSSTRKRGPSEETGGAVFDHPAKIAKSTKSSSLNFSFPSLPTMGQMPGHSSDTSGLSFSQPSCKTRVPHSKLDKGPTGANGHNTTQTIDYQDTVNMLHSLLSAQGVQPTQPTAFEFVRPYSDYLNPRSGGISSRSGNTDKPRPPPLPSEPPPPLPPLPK
How it was run: as §3

[8] = system: A2780; test: Cell viability assay, ovarian A2780; assay type: cell-based; settings: Homo sapiens, read-out: Antiproliferative activity GI50 A2780
Source text: as §1

[9] = biological target: CDK 2A (Homo sapiens, UniProt P24941); test: Kinase assay CDK2A (radiometric profiling service); assay type: biochemical; settings: apparent Ki calculated from Km (ATP) and IC50; read-out: CDK inhibition Ki CDK 2A
How it was run: as §2

[10] = system: MDA-MB-453; test: Cell viability assay (MTT, solid tumour cell line) MDA-MB-453; assay type: cell-based, human
Source text: as §1

[11] = biological target: T3, CDK4D1 (Homo sapiens, UniProt P11802); test: Kinase assay CDK4/D1 (radiometric or ADP Glo); assay type: biochemical; settings: apparent Ki calculated from Km (ATP) and IC50; read-out: CDK inhibition Ki CDK4D1
T3 construct: purchased Eurofins Pharma Discovery or Reaction Biology Corporation (service)
T3 sequence (P11802 whole entry): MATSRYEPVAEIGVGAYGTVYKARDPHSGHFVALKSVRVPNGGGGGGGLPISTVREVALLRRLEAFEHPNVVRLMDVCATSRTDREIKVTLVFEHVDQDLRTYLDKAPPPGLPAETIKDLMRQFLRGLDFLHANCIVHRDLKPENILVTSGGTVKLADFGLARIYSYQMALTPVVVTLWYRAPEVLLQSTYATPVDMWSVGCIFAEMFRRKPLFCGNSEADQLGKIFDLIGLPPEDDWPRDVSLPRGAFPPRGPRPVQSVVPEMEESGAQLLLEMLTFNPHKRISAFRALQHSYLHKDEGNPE
T3 sequence (P24385 whole entry partner): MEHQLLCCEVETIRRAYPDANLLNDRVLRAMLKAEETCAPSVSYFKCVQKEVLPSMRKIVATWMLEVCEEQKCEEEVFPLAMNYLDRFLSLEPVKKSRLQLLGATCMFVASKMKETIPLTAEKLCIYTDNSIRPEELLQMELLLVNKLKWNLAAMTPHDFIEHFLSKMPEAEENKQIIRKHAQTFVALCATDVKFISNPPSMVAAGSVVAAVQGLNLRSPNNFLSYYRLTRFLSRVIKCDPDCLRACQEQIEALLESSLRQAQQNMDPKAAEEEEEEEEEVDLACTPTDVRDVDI
How it was run: as §2

[12] = system: KG-1; test: Cell viability assay, leukemia KG-1; assay type: cell-based; settings: Homo sapiens, 72 h, read-out: Antiproliferative activity GI50 KG-1
Source text: as §1

[13] = system: MOLM-13; test: Cell viability assay, leukemia MOLM-13; assay type: cell-based; settings: Homo sapiens, 72 h, read-out: Antiproliferative activity GI50 MOLM-13
Source text: as §1

[14] = Homo sapiens, MV4-11, 72 h; read-out: Anti-proliferative activity GI50 MV4-11
[15] = Homo sapiens, MDA-MB-453, 72 h; read-out: Anti-proliferative activity GI50 MDA-MB-453

Compound: CNc1nc(C)c(-c2ccnc(Nc3ccc(N4CCN(C)CC4)cn3)n2)s1 [Compound 29, N,4-dimethyl-5-(2-((5-(4-methylpiperazin-1-yl)pyridin-2-yl)amino)pyrimidin-4-yl)thiazol-2-amine]
GI50 ([1]; Homo sapiens, MV4-11, 72 h, read-out: Anti-proliferative activity GI50 MV4-11): 297 ± 61 nM | Ki [2]: 3210 nM | Ki [3]: 50 nM | GI50 ([4]; D283, 72 h): 335 ± 97 nM | GI50 [5]: 326 ± 29 nM | Ki [6]: > 5000 nM | Ki [7]: 1820 nM | GI50 ([8]; A2780, 72 h): 282 ± 58 nM | Ki [9]: 650 nM | GI50 ([10]; Homo sapiens, MDA-MB-453, 72 h, read-out: Anti-proliferative activity GI50 MDA-MB-453): 544 ± 78 nM | Ki [11]: 5 nM

Compound: CCc1nc(C)c(-c2ccnc(Nc3ccc(N4CCN(CC)CC4)cn3)n2)s1 [Compound 9, 4-(2-ethyl-4-methylthiazol-5-yl)-N-(5-(4-ethylpiperazin-1-yl)pyridin-2-yl)pyrimidin-2-amine]
GI50 [1, 14]: 591 ± 83 nM | GI50 [12]: 47 ± 15 nM | Ki [2]: > 5000 nM | Ki [3]: 1670 nM | Ki [6]: > 5000 nM | Ki [7]: > 5000 nM | GI50 [13]: 293 ± 28 nM | Ki [9]: 1800 nM | GI50 [10, 15]: 3320 ± 576 nM | Ki [11]: 10 nM

Compound: Cc1nc(NC2CCCC2)sc1-c1nc(Nc2ccc(N3CCN(C)CC3)cn2)ncc1F [Compound 64]
GI50 [1, 14]: 73 ± 28 nM | GI50 ([4]; D283, 72 h, Medulloblastoma): 77 ± 6 nM | GI50 ([5]; Medulloblastoma): 457 ± 171 nM | GI50 ([8]; A2780, 72 h, Ovarian): 56 ± 7 nM | GI50 [10, 15]: 202 ± 30 nM

Compound: CNc1nc(C)c(-c2nc(Nc3ccc(N4CCN(C)CC4)cn3)ncc2F)s1 [Compound 31, 5-(5-fluoro-2-((5-(4-methylpiperazin-1-yl)pyridin-2-yl)amino)pyrimidin-4-yl)-N,4-dimethylthiazol-2-amine]
GI50 [1, 14]: 11 ± 4 nM | Ki [2]: > 5000 nM | Ki [3]: 10 nM | GI50 ([4]; D283, 72 h, Medulloblastoma): 489 ± 22 nM | GI50 ([5]; Medulloblastoma): 645 ± 97 nM | Ki [6]: > 5000 nM | Ki [7]: 1910 nM | GI50 ([8]; A2780, 72 h, Ovarian): 94 ± 1 nM | Ki [9]: 365 nM | GI50 [10, 15]: 381 ± 96 nM | Ki [11]: 2 nM

Compound: CC(=O)N1CCN(c2ccc(Nc3nccc(-c4sc(C)nc4C)n3)nc2)CC1 [Compound 1, 1-(4-(6-((4-(2,4-dimethylthiazol-5-yl)pyrimidin-2-yl)amino)pyridin-3-yl)piperazin-1-yl)ethan-1-one]
GI50 [1, 14]: 1100 ± 345 nM | Ki [2]: > 5000 nM | Ki [3]: 590 nM | Ki [6]: > 5000 nM | Ki [7]: > 5000 nM | Ki [9]: > 5000 nM | GI50 [10, 15]: > 10000 nM | Ki [11]: 81 nM

Compound: CNc1nc(C)c(-c2nc(Nc3ccc(N4CCOCC4)cn3)ncc2F)s1 [Compound 38, 5-(5-fluoro-2-((5-morpholinopyridin-2-yl)amino)pyrimidin-4-yl)-N,4-dimethylthiazol-2-amine]
GI50 [1, 14]: 69 ± 5 nM | Ki [2]: 3320 nM | Ki [3]: 30 nM | Ki [6]: > 5000 nM | Ki [7]: > 5000 nM | Ki [9]: 100 nM | GI50 [10, 15]: 5410 ± 801 nM | Ki [11]: 5 nM

Compound: Cc1nc(NC(C)C)sc1-c1ccnc(Nc2ccc(N3CCOCC3)cn2)n1 [Compound 58, N-isopropyl-4-methyl-5-(2-((5-morpholinopyridin-2-yl)amino)pyrimidin-4-yl)thiazol-2-amine]
GI50 [1, 14]: 32 ± 3 nM | Ki [2]: > 5000 nM | Ki [3]: 82 nM | Ki [6]: > 5000 nM | Ki [7]: > 5000 nM | Ki [9]: 127 nM | GI50 [10, 15]: 115 ± 24 nM | Ki [11]: 41 nM

Other lines, results leading:

GI50 [1, 14]: 20 ± 15 nM | Ki [2]: > 5000 nM | Ki [3]: 10 nM | GI50 ([4]; D283, 72 h, Medulloblastoma): 358 ± 100 nM | GI50 ([5]; Medulloblastoma): 617 ± 112 nM | Ki [6]: > 5000 nM | Ki [7]: 1800 nM | GI50 ([8]; A2780, 72 h, Ovarian): 72 ± 20 nM | Ki [9]: 476 nM | GI50 [10, 15]: 3360 ± 286 nM | Ki [11]: 2 nM
Compound: Cc1nc(N(C)C2CCCC2)sc1-c1ccnc(Nc2ccc(N3CCN(C)CC3)cn2)n1 [Compound 86, N-cyclopentyl-N,4-dimethyl-5-(2-((5-(4-methylpiperazin-1-yl)pyridin-2-yl)amino)pyrimidin-4-yl)thiazol-2-amine]

GI50 [1, 14]: 454 ± 40 nM | Ki [2]: > 5000 nM | Ki [3]: 31 nM | Ki [6]: > 5000 nM | Ki [7]: 1090 nM | Ki [9]: 1150 nM | GI50 [10, 15]: 356 ± 24 nM | Ki [11]: 1 nM
Compound: Cc1nc(NC2CCCC2)sc1-c1nc(Nc2ccc(N3CCC(N(C)C)CC3)cn2)ncc1F [Compound 80, N-cyclopentyl-5-(2-((5-(4-(dimethylamino)piperidin-1-yl)pyridin-2-yl)amino)-5-fluoropyrimidin-4-yl)-4-methylthiazol-2-amine]

GI50 [1, 14]: 508 ± 42 nM | Ki [2]: > 5000 nM | Ki [3]: 485 nM | Ki [6]: > 5000 nM | Ki [7]: > 5000 nM | Ki [9]: > 5000 nM | GI50 [10, 15]: 494 ± 81 nM | Ki [11]: 19 nM
Compound: Cc1nc(Nc2ccccc2)sc1-c1ccnc(Nc2ccc(N3CCN(C)CC3)cn2)n1 [Compound 90, 4-methyl-5-(2-((5-(4-methylpiperazin-1-yl)pyridin-2-yl)amino)pyrimidin-4-yl)-N-phenylthiazol-2-amine]

GI50 [1, 14]: 69 ± 13 nM | Ki [2]: > 5000 nM | Ki [3]: 11 nM | Ki [6]: > 5000 nM | Ki [7]: > 5000 nM | Ki [9]: 154 nM | GI50 [10, 15]: 415 ± 103 nM | Ki [11]: 8 nM
Compound: FC(F)(F)c1nc(NC2CCCC2)sc1-c1ccnc(Nc2ccc(N3CCOCC3)cn2)n1 [Compound 73, N-cyclopentyl-5-(2-((5-morpholinopyridin-2-yl)amino)pyrimidin-4-yl)-4-(trifluoromethyl)thiazol-2-amine]

GI50 [1, 14]: 191 ± 29 nM | Ki [2]: > 5000 nM | Ki [3]: 257 nM | Ki [6]: > 5000 nM | Ki [7]: > 5000 nM | Ki [9]: > 5000 nM | GI50 [10, 15]: 7040 ± 710 nM | Ki [11]: 70 nM
Compound: Cc1nc(NC2CCCC2)sc1-c1ccnc(Nc2ccc(N3CCCCC3)cn2)n1 [Compound 75, N-cyclopentyl-4-methyl-5-(2-((5-(piperidin-1-yl)pyridin-2-yl)amino)pyrimidin-4-yl)thiazol-2-amine]

GI50 [1, 14]: 328 ± 7 nM | Ki [2]: 3170 nM | Ki [3]: 31 nM | Ki [6]: > 5000 nM | Ki [7]: > 5000 nM | Ki [9]: 121 nM | GI50 [10, 15]: 6860 ± 798 nM | Ki [11]: 10 nM
Compound: CC(=O)N1CCN(c2ccc(Nc3nccc(-c4sc(N(C)C5CCCC5)nc4C)n3)nc2)CC1 [Compound 87, 1-(4-(6-((4-(2-(cyclopentyl(methyl)amino)-4-methylthiazol-5-yl)pyrimidin-2-yl)amino)pyridin-3-yl)piperazin-1-yl)ethan-1-one]
